Test system: select kinases
Test: KINOMEscan in vitro competition binding assay for select kinases

- KINOMEscan competition binding, inhibition of CAMK4 (kinase CAMK4): No inhibition
Compound: Cc1cccc(CC(=O)N2CCc3c2ccc(-c2cn(C)c4ncnc(N)c24)c3F)n1 [GSK2656157, reference compound]
- KINOMEscan competition binding, inhibition of AURKB (kinase AURKB): Inhibition (“Inhibition” refers to greater than 50% inhibition)
- KINOMEscan competition binding, inhibition of AXL (kinase AXL): Inhibition (“Inhibition” refers to greater than 50% inhibition)
- KINOMEscan competition binding, inhibition of BLK (kinase BLK): Inhibition (“Inhibition” refers to greater than 50% inhibition)
- KINOMEscan competition binding, inhibition of CDK8 (kinase CDK8): Inhibition (“Inhibition” refers to greater than 50% inhibition)
- KINOMEscan competition binding, inhibition of CDK11 (kinase CDK11): Inhibition (“Inhibition” refers to greater than 50% inhibition)
- KINOMEscan competition binding, inhibition of CSF1R (kinase CSF1R): Inhibition (“Inhibition” refers to greater than 50% inhibition)
- KINOMEscan competition binding, inhibition of EIF2AK1 (kinase EIF2AK1): Inhibition (“Inhibition” refers to greater than 50% inhibition)
- KINOMEscan competition binding, inhibition of EPHB6 (kinase EPHB6): Inhibition (“Inhibition” refers to greater than 50% inhibition)
- KINOMEscan competition binding, inhibition of FLT3 (kinase FLT3): No Inhibition (“No Inhibition” refers to less than 50% inhibition)
- KINOMEscan competition binding, inhibition of HIPK4 (kinase HIPK4): No Inhibition (“No Inhibition” refers to less than 50% inhibition)
- KINOMEscan competition binding, inhibition of LOK (kinase LOK): Inhibition (“Inhibition” refers to greater than 50% inhibition)
- KINOMEscan competition binding, inhibition of MAP3K2 (kinase MAP3K2): Inhibition (“Inhibition” refers to greater than 50% inhibition)
- KINOMEscan competition binding, inhibition of MAP3K3 (kinase MAP3K3): No Inhibition (“No Inhibition” refers to less than 50% inhibition)
- KINOMEscan competition binding, inhibition of MAP3K15 (kinase MAP3K15): No Inhibition (“No Inhibition” refers to less than 50% inhibition)
- KINOMEscan competition binding, inhibition of MEK5 (kinase MEK5): Inhibition (“Inhibition” refers to greater than 50% inhibition)
- KINOMEscan competition binding, inhibition of MKNK2 (kinase MKNK2): No Inhibition (“No Inhibition” refers to less than 50% inhibition)
- KINOMEscan competition binding, inhibition of NEK1 (kinase NEK1): No Inhibition (“No Inhibition” refers to less than 50% inhibition)
- KINOMEscan competition binding, inhibition of NEK5 (kinase NEK5): No Inhibition (“No Inhibition” refers to less than 50% inhibition)
- KINOMEscan competition binding, inhibition of PIK3C2B (kinase PIK3C2B): No Inhibition (“No Inhibition” refers to less than 50% inhibition)
- KINOMEscan competition binding, inhibition of RIOK2 (kinase RIOK2): Inhibition (“Inhibition” refers to greater than 50% inhibition)
- KINOMEscan competition binding, inhibition of RIPK1 (kinase RIPK1): Inhibition (“Inhibition” refers to greater than 50% inhibition)
- KINOMEscan competition binding, inhibition of RIPK2 (kinase RIPK2): No Inhibition (“No Inhibition” refers to less than 50% inhibition)
- KINOMEscan competition binding, inhibition of RIPK5 (kinase RIPK5): No Inhibition (“No Inhibition” refers to less than 50% inhibition)
- KINOMEscan competition binding, inhibition of TESK1 (kinase TESK1): No Inhibition (“No Inhibition” refers to less than 50% inhibition)
- KINOMEscan competition binding, inhibition of TIE2 (kinase TIE2): No Inhibition (“No Inhibition” refers to less than 50% inhibition)
- KINOMEscan competition binding, inhibition of TRKA (kinase TRKA): Inhibition (“Inhibition” refers to greater than 50% inhibition)
- KINOMEscan competition binding, inhibition of TRKB (kinase TRKB): No Inhibition (“No Inhibition” refers to less than 50% inhibition)
- KINOMEscan competition binding, inhibition of TRKC (kinase TRKC): Inhibition (“Inhibition” refers to greater than 50% inhibition)
- KINOMEscan competition binding, inhibition of VRK2 (kinase VRK2): Inhibition (“Inhibition” refers to greater than 50% inhibition)
- KINOMEscan competition binding, inhibition of YANK1 (kinase YANK1): No Inhibition (“No Inhibition” refers to less than 50% inhibition)
- KINOMEscan competition binding, inhibition of YANK2 (kinase YANK2): No Inhibition (“No Inhibition” refers to less than 50% inhibition)
- KINOMEscan competition binding, inhibition of YSK4 (kinase YSK4): Inhibition (“Inhibition” refers to greater than 50% inhibition)

Source: patent US20220356186A1, “PERK INHIBITING PYRROLOPYRIMIDINE COMPOUNDS” (HiberCell, Inc., priority 2019, published 2022)
